The source of these data is patent publication US20180362485A1, “N-HYDROXYFORMAMIDE COMPOUNDS AND COMPOSITIONS COMPRISING THEM FOR USE AS BMP l, TLL1 AND/OR TLL2 INHIBITORS” (GlaxoSmithKline Intellectual Property (No. 2) Limited, priority 2015, published 2018).

This assay deals with T1, human TLL1 (Homo sapiens, UniProt O43897, I156V/N221S/V284A).
T1 construct: a natural variant of full length native human TLL1 (NM_012464.4); made in house
T1 sequence (O43897 148-1013 I156V/N221S/V284A): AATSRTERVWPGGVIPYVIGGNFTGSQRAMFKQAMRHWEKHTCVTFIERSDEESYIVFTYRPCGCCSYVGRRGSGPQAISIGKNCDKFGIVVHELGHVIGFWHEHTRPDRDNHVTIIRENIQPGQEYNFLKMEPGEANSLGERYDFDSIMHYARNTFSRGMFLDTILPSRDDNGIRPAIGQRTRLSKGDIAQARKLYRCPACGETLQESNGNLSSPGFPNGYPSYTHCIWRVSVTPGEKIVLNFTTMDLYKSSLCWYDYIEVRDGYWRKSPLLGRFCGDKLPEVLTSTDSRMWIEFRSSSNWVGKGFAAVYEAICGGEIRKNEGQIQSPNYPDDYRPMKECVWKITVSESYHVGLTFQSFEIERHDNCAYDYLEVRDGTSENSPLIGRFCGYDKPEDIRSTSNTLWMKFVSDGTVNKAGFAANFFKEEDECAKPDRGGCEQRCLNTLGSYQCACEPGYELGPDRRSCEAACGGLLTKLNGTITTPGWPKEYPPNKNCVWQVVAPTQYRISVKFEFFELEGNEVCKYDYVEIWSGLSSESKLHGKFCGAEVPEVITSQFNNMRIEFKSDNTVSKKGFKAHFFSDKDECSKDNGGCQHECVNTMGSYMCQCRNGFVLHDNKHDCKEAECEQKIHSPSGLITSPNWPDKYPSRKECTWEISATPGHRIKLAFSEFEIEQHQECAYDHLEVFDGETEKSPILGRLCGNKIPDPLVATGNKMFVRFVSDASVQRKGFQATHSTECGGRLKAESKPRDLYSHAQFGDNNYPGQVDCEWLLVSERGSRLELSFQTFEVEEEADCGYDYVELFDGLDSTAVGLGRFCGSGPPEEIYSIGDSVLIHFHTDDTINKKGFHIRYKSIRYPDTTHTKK
The assay can be described thus: Enzyme inhibition assay for human TLL1. It is filed as biochemical. The settings on record: 2 nM TLL1, 0.8 μM promyostatin peptide substrate; read-out: pIC50, TLL1 enzyme inhibition assay (converted). An excerpt:
Buffer components are purchased from Sigma-Aldrich (St. Louis, Mo.) or an equivalent supplier. The promyostatin peptide substrate is custom synthesized by American Peptide Company (Sunnyvale, Calif.) using the myostatin protein sequence (Uniprot accession number 014793) surrounding the cleavage site reviewed in Hopkins, D. R., et al., 2007 Matrix Biology, 26, 508-523. The procollagen peptide substrate used in the high enzyme BMP1 cleavage assay is custom synthesized by 21st Century Biochemicals (Marlboro, Mass.) using the procollagen Iα protein sequence (Uniprot accession number P02452) surrounding the cleavage site reviewed in Hopkins, D. R., et al., 2007 Matrix Biology, 26, 508-523.
The DNA sequence encoding a natural variant of full length native human TLL1 (NM_012464.4) containing three amino acid substitutions I156V, N221S, V284A is amplified from human heart and brain cDNA and subcloned into the pCDN expression vector. The plasmid is electroporated into CHOE1A cells. […]
Inhibition of human TLL1 and TLL2 recombinant enzymes is measured in 10 ul endpoint assays in 384-well format using the same promyostatin peptide substrate employed in the above Enzyme Inhibition Assay for human BMP1. […] TLL1 and TLL2 reactions are quenched with 5 μl of 0.5 M EDTA and plates are read on a ViewLux (Perkin Elmer) multilabel plate reader using a 480 nm excitation filter and 540 nm emission filter. […]

Turning to `CCCCC[C@@H](C(=O)NCNC(=O)c1ccc(-c2ccc(C(=O)O)cc2)o1)[C@@H](CC)N(O)C=O` [WO2015/104684 Example 71, 4-(5-((((R)-2-((R)-1-(N-hydroxyformamido)propyl)heptanamido)methyl)carbamoyl)furan-2-yl)benzoic acid], the IC50 is less than 398 nM.
